Reference: patent publication US7393845B2 (H. Lundbeck A/S, priority 2001, dated 2008)
Read-outs that look alike come from different tables or passages of the source.

Key:
cloned 5-HT1A receptors = target: T1, cloned 5-HT1A receptors (Homo sapiens, UniProt P08908); experiment: 5-HT1A antagonistic activity: antagonism of 5-HT induced inhibition of forskolin induced cAMP accumulation in transfected HeLa cells (HA7); assay type: cell-based
T1 construct: expressed in transfected cells
T1 sequence (P08908 1-422): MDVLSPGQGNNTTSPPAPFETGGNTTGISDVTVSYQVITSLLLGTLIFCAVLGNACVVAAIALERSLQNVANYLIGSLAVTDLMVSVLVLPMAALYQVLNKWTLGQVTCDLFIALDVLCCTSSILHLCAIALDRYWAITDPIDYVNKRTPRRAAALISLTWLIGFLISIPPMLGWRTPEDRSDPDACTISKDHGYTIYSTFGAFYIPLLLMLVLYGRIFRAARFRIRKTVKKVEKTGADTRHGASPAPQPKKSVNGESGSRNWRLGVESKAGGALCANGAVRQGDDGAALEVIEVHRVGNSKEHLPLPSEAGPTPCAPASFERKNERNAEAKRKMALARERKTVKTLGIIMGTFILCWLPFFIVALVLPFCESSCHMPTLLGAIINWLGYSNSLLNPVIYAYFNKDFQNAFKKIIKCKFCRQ
Experimental: The 5-HT1A antagonistic activity of some of the compounds of the invention has been estimated in vitro at cloned 5-HT1A receptors stably expressed in transfected HeLa cells (HA7). In this test, 5-HT1A antagonistic activity is estimated by measuring the ability of the compounds to antagonize the 5-HT induced inhibition of forskolin induced cAMP accumulation. The assay was performed as a modification of the method described by Pauwels, P. J. et al. Biochem. Pharmacol. 1993, 45, 375.

human 5-HT1A receptors = target: T2, human 5-HT1A receptors (Homo sapiens, UniProt P08908); experiment: Inhibition of 3H-5-CT binding to human 5-HT1A receptors
T2 construct: expressed in transfected cells; cell homogenate
T2 sequence (P08908 1-422): T1 sequence (P08908 1-422)
Experimental: The affinity of the compounds of the invention to 5-HT1A receptors was determined by measuring the inhibition of binding of a radioactive ligand at 5-HT1A receptors as described in the following test:
Inhibition of ^3H-5-CT Binding to Human 5-HT1A Receptors.
By this method the inhibition by drugs of the binding of the 5-HT1A agonist ^3H-5-carboxamido tryptamine (^3H-5-CT) to cloned human 5-HT1A receptors stably expressed in transfected HeLa cells (HA7) (Fargin, A. et al. J. Biol. Chem. 1989, 264, 14848) is determined in vitro. The assay was performed as a modification of the method described by Harrington, M. A. et al. J. Pharmacol. Exp. Ther. 1994, 268, 1098. Human 5-HT1A receptors (40 μg of cell homogenate) were incubated for 15 minutes at 37° C. in 50 mM Tris buffer at pH 7.7 in the presence of ^3H-5-CT. Non-specific binding was determined by including 10 μM of metergoline. The reaction was terminated by rapid filtration through Unifilter GF/B filters on a Tomtec Cell Harvester. Filters were counted in a Packard Top Counter.

[1] = cloned human 5-HT1A receptors in HeLa cells (HA7), 15 minutes at 37° C., pH 7.7, read-out: IC50, inhibition of 3H-5-CT binding to human 5-HT1A receptors

Row | SMILES | IC50 (cloned 5-HT1A receptors) [nM] | IC50 (human 5-HT1A receptors; [1]) [nM] | IC50 (human 5-HT1A receptors) [nM]
1 | Cc1cc(C(F)(F)F)c(C#N)c(SCCN2CCN(c3cccc4c3OCCO4)CC2)n1 [Compound 1b, 2-{2-[4-(2,3-Dihydrobenzo[1,4]dioxin-5-yl)piperazin-1-yl]ethylsulfanyl}-6-methyl-4-trifluoromethylnicotinonitrile] | < 7000 | < 300 | 
2 | Cc1ccc(C#N)c(SCCN2CCN(c3ccc(C#N)c4c3OCCO4)CC2)n1 [Compound 1e, {2-[4-(8-Cyano-2,3-dihydrobenzo[1,4]dioxin-5-yl)piperazin-1-yl]ethylsulfanyl}-6-methylnicotinonitrile] | < 7000 |  | 
3 | N#Cc1ccc(N2CCN(CCCSc3ccc(C(F)(F)F)cn3)CC2)c2c1OCCO2 [Compound 1v, 2-{3-[4-(8-Cyano-2,3-dihydrobenzo[1,4]dioxin-5-yl)piperazin-1-yl]propylsulfanyl}-5-trifluoromethylpyridine] | < 7000 |  | 
4 | N#Cc1cccnc1SCCN1CCN(c2cccc3c2OCCO3)CC1 [Compound 2a] |  |  | < 300
5 | Cc1cc(C)c(C#N)c(SCCN2CCN(c3cc(Cl)cc4c3OCC(=O)N4)CC2)n1 [Compound 2aa, 2-[2-[4-(6-Chloro-2,3-dihydro-1,4-benzoxazin-3-on-8-yl)piperazin-1-yl]ethylsulfanyl]-4,6-dimethylnicotinonitrile] |  | < 300 | 
6 | N#Cc1cccnc1SCCN1CCN(c2cc(Cl)cc3c2OCCN3)CC1 [Compound 2ah, 2-[2-[4-(6-Chloro-2,3-dihydro-1,4-benzoxazin-8-yl)piperazin-1-yl]ethylsulfanyl]nicotinonitrile] |  | < 300 | 
7 | Cc1cc(C)c(C#N)c(SCCN2CCN(c3cc(Cl)cc4c3OCCN4)CC2)n1 [Compound 2ai, 2-[2-[4-(6-Chloro-2,3-dihydro-1,4-benzoxazin-8-yl)piperazin-1-yl]ethylsulfanyl]-4,6-dimethylnicotinonitrile] |  | < 300 | 
8 | Cc1cc(Cl)nc(SCCN2CCN(c3cc(Cl)cc4c3OCCN4)CC2)c1C#N [Compound 2aj, 6-Chloro-2-[2-[4-(6-chloro-2,3-dihydro-1,4-benzoxazin-8-yl)piperazin-1-yl]ethylsulfanyl]-4-methylnicotinonitrile] |  | < 300 | 
9 | Cc1cc(N2CCCCC2)nc(SCCN2CCN(c3ccc(C#N)c4c3OCCO4)CC2)c1C#N [Compound 2c, 2-{2-[4-(8-Cyano-2,3-dihydrobenzo[1,4]dioxin-5-yl)piperazin-1-yl]ethylsulfanyl}-4-methyl-6-(piperidin-1-yl)nicotinonitrile] |  | < 300 | 
10 | Cc1cc(C)c(S(=O)(=O)c2ccccc2)c(SCCN2CCN(c3cccc4c3OCCO4)CC2)n1 [Compound 2l, 2-{3-[4-(2,3-Dihydrobenzo[1,4]dioxin-5-yl)piperazin-1-yl]ethylsulfanyl}-4,6-dimethyl-3-phenylsulfonylpyridine] |  | < 300 | 
11 | Cc1cc(Cl)nc(SCCN2CCN(c3cccc4c3OCCO4)CC2)c1C#N [Compound 2o, 6-Chloro-2-{3-[4-(2,3-dihydrobenzo[1,4]dioxin-5-yl)piperazin-1-yl]ethylsulfanyl}-4-methylnicotinonitrile] |  | < 300 | 
12 | Cc1cc(C)c(C#N)c(SCCN2CCN(c3ccc(C#N)c4c3OCCO4)CC2)n1 [Compound 2s, 2-{3-[4-(8-Cyano-2,3-dihydrobenzo[1,4]dioxin-5-yl)piperazin-1-yl]ethylsulfanyl}-4,6-dimethylnicotinonitrile] |  | < 300 | 
13 | Cc1nc(SCCN2CCN(c3ccc(C#N)c4c3OCCO4)CC2)c(C#N)c(C)c1Cl [Compound 2u, 5-Chloro-2-{3-[4-(8-cyano-2,3-dihydrobenzo[1,4]dioxin-5-yl)piperazin-1-yl]ethylsulfanyl}-4,6-dimethylnicotinonitrile] |  | < 300 | 
14 | N#Cc1cccnc1SCCN1CCN(c2cc(Cl)cc3c2OCC(=O)N3)CC1 [Compound 2z, 2-[2-[4-(6-Chloro-2,3-dihydro-1,4-benzoxazin-3-on-8-yl)piperazin-1-yl]ethylsulfanyl]nicotinonitrile] |  | < 300 | 
